Assay results: ChEMBL document CHEMBL4507269, “Data for DCP probe BAY-386” (2021)

Legend:
[1] = molecular target: T1, 5-hydroxytryptamine receptor 1A (Homo sapiens) (UniProt P08908); experiment: 5-HT1A (h) Eurofins-Cerep Cellular and Nuclear Receptor Functional Assays; details: Compound concentration 10.0 uM
T1 sequence (whole entry): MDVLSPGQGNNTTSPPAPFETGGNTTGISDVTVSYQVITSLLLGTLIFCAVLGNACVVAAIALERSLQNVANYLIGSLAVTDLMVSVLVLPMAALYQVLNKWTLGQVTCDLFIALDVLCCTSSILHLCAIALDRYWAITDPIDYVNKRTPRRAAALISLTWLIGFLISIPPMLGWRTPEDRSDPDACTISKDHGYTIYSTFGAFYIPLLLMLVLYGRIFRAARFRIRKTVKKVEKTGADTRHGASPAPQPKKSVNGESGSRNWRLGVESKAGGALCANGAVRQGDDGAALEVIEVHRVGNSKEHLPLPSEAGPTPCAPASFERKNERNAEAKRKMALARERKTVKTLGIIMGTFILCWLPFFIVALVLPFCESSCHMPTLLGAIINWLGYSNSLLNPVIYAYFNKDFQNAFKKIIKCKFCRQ

[2] = tested on: Tyrosine-protein kinase ABL1 (Homo sapiens), P00519 [E255K]; details: Compound concentration 1000.0 nM
[3] = molecular target: Aurora kinase C (Homo sapiens) (UniProt Q9UQB9); details: Compound concentration 1000.0 nM
[4] = molecular target: Cytoplasmic tyrosine-protein kinase BMX (Homo sapiens) (UniProt P51813); details: Compound concentration 1000.0 nM
[5] = molecular target: Calcium/calmodulin-dependent protein kinase type II subunit alpha (Homo sapiens) (UniProt Q9UQM7); details: Compound concentration 1000.0 nM
[6] = molecular target: Peripheral plasma membrane protein CASK (Homo sapiens) (UniProt O14936); details: Compound concentration 1000.0 nM
Sequence of Peripheral plasma membrane protein CASK (Homo sapiens) (O14936 whole entry): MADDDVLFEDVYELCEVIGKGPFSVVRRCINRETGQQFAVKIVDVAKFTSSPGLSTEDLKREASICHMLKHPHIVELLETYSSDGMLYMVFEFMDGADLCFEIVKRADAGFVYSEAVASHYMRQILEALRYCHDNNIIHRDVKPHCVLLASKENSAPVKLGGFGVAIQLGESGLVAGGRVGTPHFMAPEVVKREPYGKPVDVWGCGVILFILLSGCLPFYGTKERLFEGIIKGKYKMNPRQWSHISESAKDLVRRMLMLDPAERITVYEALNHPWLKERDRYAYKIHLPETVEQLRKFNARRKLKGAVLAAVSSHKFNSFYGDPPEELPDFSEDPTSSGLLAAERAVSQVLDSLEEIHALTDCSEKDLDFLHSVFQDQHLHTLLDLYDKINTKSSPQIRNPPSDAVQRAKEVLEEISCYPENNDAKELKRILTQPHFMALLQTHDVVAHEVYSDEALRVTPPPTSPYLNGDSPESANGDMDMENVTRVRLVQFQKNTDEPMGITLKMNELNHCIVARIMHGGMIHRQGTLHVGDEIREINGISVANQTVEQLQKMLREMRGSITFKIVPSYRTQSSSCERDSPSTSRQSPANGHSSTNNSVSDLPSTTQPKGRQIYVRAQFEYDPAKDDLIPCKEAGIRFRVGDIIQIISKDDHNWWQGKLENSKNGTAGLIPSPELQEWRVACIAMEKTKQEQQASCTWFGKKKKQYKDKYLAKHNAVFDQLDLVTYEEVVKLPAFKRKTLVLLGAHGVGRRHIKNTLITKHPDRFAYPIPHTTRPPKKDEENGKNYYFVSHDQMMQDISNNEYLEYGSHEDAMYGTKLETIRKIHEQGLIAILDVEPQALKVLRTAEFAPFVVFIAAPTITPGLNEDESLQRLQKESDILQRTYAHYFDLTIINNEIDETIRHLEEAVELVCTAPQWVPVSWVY

[7] = molecular target: Cyclin-dependent kinase 4 (Homo sapiens) (UniProt P11802); details: Compound concentration 1000.0 nM
Sequence of Cyclin-dependent kinase 4 (Homo sapiens) (P11802 whole entry): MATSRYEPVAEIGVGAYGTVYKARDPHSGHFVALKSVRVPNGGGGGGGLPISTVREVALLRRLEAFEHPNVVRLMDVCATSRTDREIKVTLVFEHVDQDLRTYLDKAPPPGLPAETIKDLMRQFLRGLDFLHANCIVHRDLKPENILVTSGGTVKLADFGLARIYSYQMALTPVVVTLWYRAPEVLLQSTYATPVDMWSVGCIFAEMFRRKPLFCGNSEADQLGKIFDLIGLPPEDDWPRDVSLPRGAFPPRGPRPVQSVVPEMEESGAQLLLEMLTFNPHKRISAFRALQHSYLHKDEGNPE

[8] = molecular target: Cyclin-dependent kinase 4 (Homo sapiens) (UniProt P11802); details: Compound concentration 1000.0 nM; remark: listed apart in the source
[9] = molecular target: Serine/threonine-protein kinase Chk1 (Homo sapiens) (UniProt O14757); details: Compound concentration 1000.0 nM
[10] = molecular target: Casein kinase II subunit alpha (Homo sapiens) (UniProt P68400); details: Compound concentration 1000.0 nM
[11] = molecular target: Dual specificity tyrosine-phosphorylation-regulated kinase 2 (Homo sapiens) (UniProt Q92630); details: Compound concentration 1000.0 nM
[12] = tested on: Epidermal growth factor receptor (Homo sapiens), P00533 [UNDEFINED MUTATION]; details: Compound concentration 1000.0 nM
[13] = tested on: Receptor-type tyrosine-protein kinase FLT3 (Homo sapiens), P36888 [R834Q]; details: Compound concentration 1000.0 nM
[14] = molecular target: Vascular endothelial growth factor receptor 3 (Homo sapiens) (UniProt P35916); details: Compound concentration 1000.0 nM
Sequence of Vascular endothelial growth factor receptor 3 (Homo sapiens) (P35916 whole entry): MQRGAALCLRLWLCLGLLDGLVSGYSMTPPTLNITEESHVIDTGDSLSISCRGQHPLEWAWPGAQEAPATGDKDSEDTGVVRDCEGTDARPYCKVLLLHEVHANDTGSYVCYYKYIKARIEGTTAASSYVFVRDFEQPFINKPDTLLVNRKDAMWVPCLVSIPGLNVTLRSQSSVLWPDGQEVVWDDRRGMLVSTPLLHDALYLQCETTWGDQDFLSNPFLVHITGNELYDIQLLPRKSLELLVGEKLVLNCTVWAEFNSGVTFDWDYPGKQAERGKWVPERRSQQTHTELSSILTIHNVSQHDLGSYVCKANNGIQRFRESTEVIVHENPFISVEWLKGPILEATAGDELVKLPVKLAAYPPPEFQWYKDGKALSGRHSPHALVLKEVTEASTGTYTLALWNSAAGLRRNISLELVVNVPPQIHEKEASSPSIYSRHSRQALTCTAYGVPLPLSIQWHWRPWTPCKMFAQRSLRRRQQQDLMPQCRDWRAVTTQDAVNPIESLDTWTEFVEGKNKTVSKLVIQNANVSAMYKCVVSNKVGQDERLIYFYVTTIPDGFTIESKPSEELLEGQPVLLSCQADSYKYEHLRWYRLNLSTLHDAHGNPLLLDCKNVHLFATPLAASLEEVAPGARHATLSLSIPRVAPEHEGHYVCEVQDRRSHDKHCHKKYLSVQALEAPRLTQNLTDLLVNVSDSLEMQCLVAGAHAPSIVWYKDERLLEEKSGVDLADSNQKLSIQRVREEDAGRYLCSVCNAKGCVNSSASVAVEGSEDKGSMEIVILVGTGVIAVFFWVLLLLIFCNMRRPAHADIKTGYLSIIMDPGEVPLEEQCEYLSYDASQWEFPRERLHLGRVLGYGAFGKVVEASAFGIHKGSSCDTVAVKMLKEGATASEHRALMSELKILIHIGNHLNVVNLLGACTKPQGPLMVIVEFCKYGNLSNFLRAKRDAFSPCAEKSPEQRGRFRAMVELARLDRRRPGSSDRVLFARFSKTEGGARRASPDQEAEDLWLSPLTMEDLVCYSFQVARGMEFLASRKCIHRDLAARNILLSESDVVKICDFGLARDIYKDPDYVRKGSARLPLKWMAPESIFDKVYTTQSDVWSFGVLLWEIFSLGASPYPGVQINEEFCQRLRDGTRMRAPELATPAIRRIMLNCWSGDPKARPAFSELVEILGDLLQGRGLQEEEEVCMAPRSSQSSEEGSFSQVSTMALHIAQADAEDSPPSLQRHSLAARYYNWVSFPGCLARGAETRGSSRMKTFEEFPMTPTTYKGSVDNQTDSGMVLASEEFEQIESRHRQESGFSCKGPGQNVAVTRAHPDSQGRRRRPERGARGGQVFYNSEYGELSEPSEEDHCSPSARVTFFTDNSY

[15] = molecular target: Tyrosine-protein kinase Fyn (Homo sapiens) (UniProt P06241); details: Compound concentration 1000.0 nM
Sequence of Tyrosine-protein kinase Fyn (Homo sapiens) (P06241 2-537 limits assumed): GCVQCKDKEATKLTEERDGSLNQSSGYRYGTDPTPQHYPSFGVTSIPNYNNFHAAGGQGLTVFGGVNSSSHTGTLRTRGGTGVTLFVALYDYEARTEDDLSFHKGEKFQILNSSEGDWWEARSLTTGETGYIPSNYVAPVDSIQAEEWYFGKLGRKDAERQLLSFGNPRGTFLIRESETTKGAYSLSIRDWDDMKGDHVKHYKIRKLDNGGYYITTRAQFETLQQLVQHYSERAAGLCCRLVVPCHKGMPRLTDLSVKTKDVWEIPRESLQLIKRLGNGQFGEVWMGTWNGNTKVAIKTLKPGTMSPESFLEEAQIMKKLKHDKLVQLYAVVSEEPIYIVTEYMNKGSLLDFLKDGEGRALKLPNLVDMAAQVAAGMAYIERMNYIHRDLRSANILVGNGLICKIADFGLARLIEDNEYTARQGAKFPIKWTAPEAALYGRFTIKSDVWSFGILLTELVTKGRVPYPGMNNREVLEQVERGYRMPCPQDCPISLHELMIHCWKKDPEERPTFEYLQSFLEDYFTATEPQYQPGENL

[16] = molecular target: Homeodomain-interacting protein kinase 3 (Homo sapiens) (UniProt Q9H422); details: Compound concentration 1000.0 nM
[17] = molecular target: Interleukin-1 receptor-associated kinase 1 (Homo sapiens) (UniProt P51617); details: Compound concentration 1000.0 nM
[18] = tested on: Mast/stem cell growth factor receptor Kit (Homo sapiens), P10721 [D816H]; details: Compound concentration 1000.0 nM
[19] = molecular target: Serine/threonine-protein kinase MAK (Homo sapiens) (UniProt P20794); details: Compound concentration 1000.0 nM
[20] = molecular target: Mitogen-activated protein kinase kinase kinase kinase 4 (Homo sapiens) (UniProt O95819); details: Compound concentration 1000.0 nM
Sequence of Mitogen-activated protein kinase kinase kinase kinase 4 (Homo sapiens) (O95819 2-1239 limits assumed): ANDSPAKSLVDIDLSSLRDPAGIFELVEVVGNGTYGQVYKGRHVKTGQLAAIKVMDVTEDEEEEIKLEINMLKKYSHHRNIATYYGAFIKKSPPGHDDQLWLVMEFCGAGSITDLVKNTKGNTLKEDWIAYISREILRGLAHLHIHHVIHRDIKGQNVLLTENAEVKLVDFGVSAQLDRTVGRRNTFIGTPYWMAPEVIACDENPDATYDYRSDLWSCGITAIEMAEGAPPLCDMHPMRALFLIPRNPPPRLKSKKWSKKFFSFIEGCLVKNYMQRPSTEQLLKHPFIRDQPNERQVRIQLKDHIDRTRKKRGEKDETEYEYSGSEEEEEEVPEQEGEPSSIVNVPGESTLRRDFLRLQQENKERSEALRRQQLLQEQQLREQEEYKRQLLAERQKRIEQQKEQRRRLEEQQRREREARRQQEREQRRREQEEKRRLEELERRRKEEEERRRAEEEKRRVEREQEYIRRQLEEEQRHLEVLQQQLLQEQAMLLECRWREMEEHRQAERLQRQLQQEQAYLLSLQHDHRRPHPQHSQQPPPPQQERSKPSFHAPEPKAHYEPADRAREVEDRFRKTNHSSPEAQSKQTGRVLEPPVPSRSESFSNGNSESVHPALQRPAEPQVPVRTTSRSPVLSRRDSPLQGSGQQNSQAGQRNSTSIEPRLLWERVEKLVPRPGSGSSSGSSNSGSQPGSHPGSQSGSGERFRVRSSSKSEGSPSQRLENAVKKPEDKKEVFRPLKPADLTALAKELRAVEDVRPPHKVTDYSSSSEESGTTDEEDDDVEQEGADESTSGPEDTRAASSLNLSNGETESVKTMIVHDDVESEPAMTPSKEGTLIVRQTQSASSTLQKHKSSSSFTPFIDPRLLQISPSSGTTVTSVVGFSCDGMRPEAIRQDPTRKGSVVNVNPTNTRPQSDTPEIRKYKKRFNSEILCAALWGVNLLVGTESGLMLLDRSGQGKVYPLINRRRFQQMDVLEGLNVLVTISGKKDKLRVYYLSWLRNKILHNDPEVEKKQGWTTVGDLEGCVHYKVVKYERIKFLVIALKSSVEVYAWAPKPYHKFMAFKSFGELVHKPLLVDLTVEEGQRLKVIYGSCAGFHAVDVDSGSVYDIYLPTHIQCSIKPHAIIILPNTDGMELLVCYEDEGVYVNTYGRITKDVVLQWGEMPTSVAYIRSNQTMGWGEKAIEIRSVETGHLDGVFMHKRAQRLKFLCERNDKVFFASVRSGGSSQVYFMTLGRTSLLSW

[21] = molecular target: Muscle, skeletal receptor tyrosine-protein kinase (Homo sapiens) (UniProt O15146); details: Compound concentration 1000.0 nM
[22] = molecular target: Myosin light chain kinase family member 4 (Homo sapiens) (UniProt Q86YV6); details: Compound concentration 1000.0 nM
[23] = molecular target: Myosin-IIIb (Homo sapiens) (UniProt Q8WXR4); details: Compound concentration 1000.0 nM
[24] = molecular target: Serine/threonine-protein kinase 38 (Homo sapiens) (UniProt Q15208); details: Compound concentration 1000.0 nM
[25] = molecular target: Serine/threonine-protein kinase Nek9 (Homo sapiens) (UniProt Q8TD19); details: Compound concentration 1000.0 nM
[26] = molecular target: Cyclin-dependent kinase 18 (Homo sapiens) (UniProt Q07002); details: Compound concentration 1000.0 nM
[27] = molecular target: Phosphatidylinositol 4,5-bisphosphate 3-kinase catalytic subunit alpha isoform (Homo sapiens) (UniProt P42336); details: Compound concentration 1000.0 nM
[28] = molecular target: Serine/threonine-protein kinase N1 (Homo sapiens) (UniProt Q16512); details: Compound concentration 1000.0 nM
[29] = molecular target: Serine/threonine-protein kinase PknB (Mycobacterium tuberculosis) (UniProt P9WI81); details: Compound concentration 1000.0 nM
Sequence of Serine/threonine-protein kinase PknB (Mycobacterium tuberculosis) (P9WI81 whole entry): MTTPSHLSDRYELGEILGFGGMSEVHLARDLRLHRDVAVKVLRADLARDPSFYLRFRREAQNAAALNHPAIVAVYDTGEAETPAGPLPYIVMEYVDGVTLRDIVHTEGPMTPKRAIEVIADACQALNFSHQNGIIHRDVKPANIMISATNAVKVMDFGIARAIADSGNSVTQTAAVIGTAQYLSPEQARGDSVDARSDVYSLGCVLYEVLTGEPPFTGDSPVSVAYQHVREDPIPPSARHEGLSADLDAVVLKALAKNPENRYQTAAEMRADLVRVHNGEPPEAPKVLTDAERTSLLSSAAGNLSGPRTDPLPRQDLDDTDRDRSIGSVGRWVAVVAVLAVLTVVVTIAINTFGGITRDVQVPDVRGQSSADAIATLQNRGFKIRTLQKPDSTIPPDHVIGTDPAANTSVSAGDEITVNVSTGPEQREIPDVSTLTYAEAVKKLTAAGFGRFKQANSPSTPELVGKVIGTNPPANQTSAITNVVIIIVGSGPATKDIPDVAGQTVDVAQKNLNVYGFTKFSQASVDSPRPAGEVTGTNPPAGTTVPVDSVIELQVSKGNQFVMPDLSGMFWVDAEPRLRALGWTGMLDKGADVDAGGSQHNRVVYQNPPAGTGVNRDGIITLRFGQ

[30] = molecular target: Serine/threonine-protein kinase PLK1 (Homo sapiens) (UniProt P53350); details: Compound concentration 1000.0 nM
[31] = molecular target: Serine/threonine-protein kinase PLK3 (Homo sapiens) (UniProt Q9H4B4); details: Compound concentration 1000.0 nM
[32] = molecular target: Protein kinase C epsilon type (Homo sapiens) (UniProt Q02156); details: Compound concentration 1000.0 nM
[33] = molecular target: Serine/threonine-protein kinase RIO3 (Homo sapiens) (UniProt O14730); details: Compound concentration 1000.0 nM
[34] = molecular target: Ribosomal protein S6 kinase alpha-6 (Homo sapiens) (UniProt Q9UK32); details: Compound concentration 1000.0 nM
[35] = molecular target: Tyrosine-protein kinase Tec (Homo sapiens) (UniProt P42680); details: Compound concentration 1000.0 nM
[36] = molecular target: Serine/threonine-protein kinase WNK1 (Homo sapiens) (UniProt Q9H4A3); details: Compound concentration 1000.0 nM
[37] = molecular target: 5-hydroxytryptamine receptor 2A (Homo sapiens) (UniProt P28223); details: Compound concentration 10.0 uM
[38] = molecular target: 5-hydroxytryptamine receptor 6 (Homo sapiens) (UniProt P50406); details: Compound concentration 10.0 uM
[39] = molecular target: Histamine H3 receptor (Homo sapiens) (UniProt Q9Y5N1); details: Compound concentration 10.0 uM

SMILES	% Inhibition of Control Agonist Response (Mean n=2) [1] [%]	% of Control Agonist Response (Mean n=2) [1] [%]	residual activity [2] [%]	residual activity [3] [%]	residual activity [4] [%]	residual activity [5] [%]	residual activity [6] [%]	residual activity [7] [%]	residual activity [8] [%]	residual activity [9] [%]	residual activity [10] [%]	residual activity [11] [%]	residual activity [12] [%]	residual activity [13] [%]	residual activity [14] [%]	residual activity [15] [%]	residual activity [16] [%]	residual activity [17] [%]	residual activity [18] [%]	residual activity [19] [%]	further results
O=C(N1CCS(=O)(=O)CC1)N1C[C@H](c2ccc(OC(F)(F)F)cc2)C[C@H](c2nc(C3CC3)no2)C1 [BAY-386]	25.6	-0.2	100	99	100	100	100	18	96	100	100	100	77	100	100	80	100	92	71	100	residual activity [20]: 100%; residual activity [21]: 100%; residual activity [22]: 100%; residual activity [23]: 89%; residual activity [24]: 100%; residual activity [25]: 100%; residual activity [26]: 0%; residual activity [27]: 100%; residual activity [28]: 100%; residual activity [29]: 100%; residual activity [30]: 91%; residual activity [31]: 98%; residual activity [32]: 97%; residual activity [33]: 85%; residual activity [34]: 76%; residual activity [35]: 100%; residual activity [36]: 100%; inhibition [37]: 10.5%; inhibition [38]: 2.78%; inhibition [39]: -6.71%
Cc1noc([C@H]2C[C@@H](c3ccc(C(F)(F)F)cc3)CN(C(=O)N3CCS(=O)(=O)C3)C2)n1 [BAY-448]	-23	1.1	100	100	100	100	93	100	100	100	86	100	83	91	100	94	96	100	100	100	residual activity [20]: 100%; residual activity [21]: 100%; residual activity [22]: 100%; residual activity [23]: 100%; residual activity [24]: 100%; residual activity [25]: 100%; residual activity [26]: 97%; residual activity [27]: 99%; residual activity [28]: 100%; residual activity [29]: 82%; residual activity [30]: 81%; residual activity [31]: 88%; residual activity [32]: 100%; residual activity [33]: 100%; residual activity [34]: 98%; residual activity [35]: 100%; residual activity [36]: 86%; inhibition [37]: -2.96%; inhibition [38]: 27.7%; inhibition [39]: 5.78%
